Assay [1] has as its target T1, catalytic domain (JH1, amino acids 826-1132) of human JAK2 (Homo sapiens, UniProt O60674).
T1 construct: catalytic domain (JH1, amino acids 826-1132) of human JAK2; FLAG (N); purchased Carna Biosciences 08-445-20N; host or cells: baculovirus expression system
The experiment in a line: JAK2 LanthaScreen JH1 Binding Assay. Particulars: JAK2 JH1 (1.5 nM), 50 nM fluorescent JAK2-JH1 tracer, 2 hours at 25° C.; read-out: JH1 BIND. In outline:
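TR-FRET tracer-displacement format: compound IC50 from four-parameter curves after 2 h at 25° C. Reaction held 1.5 nM biotinylated, FLAG-tagged JH1 (aa 826-1132), 50 nM tracer, 0.5 nM Streptavidin-Tb, pH 7.5 Tris buffer; 2 mM ATP set nonspecific background.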
Background: TR-FRET usually uses a lanthanide donor and a delayed reading to cut background.

Assay [2] has as its target T2, pseudo-kinase domain (JH2, amino-acids 536-812 with 3 surface mutations W659A, W777A, F794H) of human Wild Type JAK2 (Homo sapiens, UniProt O60674, F794H/W659A/W777A).
T2 construct: pseudo-kinase domain (JH2, amino-acids 536-812 with 3 surface mutations W659A, W777A, F794H); His (C); Avi (biotinylated) (C); purchased BPS Bioscience 79463; host or cells: baculovirus expression system
Briefly: JAK2 LanthaScreen JH2-WT Binding Assay. The settings on record: JAK2 JH2-WT (0.145 nM), 50 nM Fluorescent JAK2-JH2 Tracer, 1 hour at 25° C.; read-out: JH2 BIND WT. The procedure, abridged:
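TR-FRET tracer displacement: IC50 from four-parameter dose-response fit. Reaction: compound, 0.145 nM biotinylated JH2 protein from baculovirus, 0.25 nM streptavidin-Tb and 50 nM tracer, 1 h at 25° C, 50 mM Tris pH 7.5 buffer. 2 mM ATP gave non-specific binding.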

For assay [3], the target named is T3, pseudo-kinase domain (JH2, amino-acids 536-812 with 3 surface mutations W659A, W777A, F794H) of human V617F mutant JAK2 (Homo sapiens, UniProt O60674, F794H/V617F/W659A/W777A).
T3 construct: pseudo-kinase domain (JH2, amino-acids 536-812 with 3 surface mutations W659A, W777A, F794H); His (C); Avi (biotinylated) (C); purchased BPS Bioscience 79498; host or cells: baculovirus expression system
Briefly: JAK2 LanthaScreen JH2-V617F Binding Assay. Particulars: JAK2 JH2-V617F (0.26 nM), 50 nM Fluorescent JAK2-JH2 Tracer, 1 hour at 25° C.; read-out: JH2 BIND V617F. The procedure, abridged:
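Serially diluted compounds are mixed with 0.26 nM protein, 50 nM fluorescent JAK2-JH2 tracer and 0.25 nM terbium-labelled streptavidin, then incubated 1 h at 25° C. LanthaScreen signal is read, and IC50 is fitted.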

Each structure is given as a SMILES string.

T3 sequence (O60674 536-812 V617F/W659A/W777A/F794H): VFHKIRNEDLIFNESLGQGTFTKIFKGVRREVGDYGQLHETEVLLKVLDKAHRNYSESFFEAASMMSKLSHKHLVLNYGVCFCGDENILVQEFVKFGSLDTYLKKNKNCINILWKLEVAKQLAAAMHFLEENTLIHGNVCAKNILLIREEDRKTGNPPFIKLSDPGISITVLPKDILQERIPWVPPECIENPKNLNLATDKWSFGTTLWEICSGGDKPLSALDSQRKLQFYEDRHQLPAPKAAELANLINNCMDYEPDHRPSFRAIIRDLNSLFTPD
T2 sequence (O60674 536-812 W659A/W777A/F794H): as the sequence (O60674 536-812 V617F/W659A/W777A/F794H) above, with F82V counted along it
T1 sequence (O60674 826-1132): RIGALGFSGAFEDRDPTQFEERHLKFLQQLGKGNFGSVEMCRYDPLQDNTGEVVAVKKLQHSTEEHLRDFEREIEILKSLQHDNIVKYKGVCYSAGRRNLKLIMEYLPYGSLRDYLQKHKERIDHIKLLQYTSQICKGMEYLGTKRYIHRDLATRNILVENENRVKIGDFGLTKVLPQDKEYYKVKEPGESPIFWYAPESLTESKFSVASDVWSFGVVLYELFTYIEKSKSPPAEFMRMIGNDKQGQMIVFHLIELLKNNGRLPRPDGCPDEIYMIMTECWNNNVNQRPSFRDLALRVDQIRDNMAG

`Cn1c(=O)n([C@H]2CCCOC2)c2c3c(-c4ccccc4)c(-c4ccc(CN5CCC(S(C)(=O)=O)CC5)cc4)[nH]c3ncc21` [Example 58, (S)-3-Methyl-7-(4-((4-(methylsulfonyl)piperidin-1-yl)methyl)phenyl)-8-phenyl-1-(tetrahydro-2H-pyran-3-yl)-3,6-dihydroimidazo[4,5-d]pyrrolo[2,3-b]pyridin-2(1H)-one]: the IC50 was 100 to 500 nM in assay [1], at most 10 nM in assay [2] and 10 to 100 nM in assay [3].

In the case of `COc1ccc(-c2c(-c3cnn(Cc4ccncc4)c3)[nH]c3ncc4c(c23)n(C2CCCC2)c(=O)n4C)cc1` [Example 59, 1-Cyclopentyl-8-(4-methoxyphenyl)-3-methyl-7-(1-(pyridin-4-ylmethyl)-1H-pyrazol-4-yl)-3,6-dihydroimidazo[4,5-d]pyrrolo[2,3-b]pyridin-2(1H)-one], the IC50 is 100 to 500 nM in assay [1], at most 10 nM in assay [2] and at most 10 nM in assay [3].

As for `Cn1ncc2cc(-c3c(-c4ccncc4)[nH]c4ncc5c(c34)n(C3CCCC3)c(=O)n5C)ccc21` [Example 60, 1-Cyclopentyl-3-methyl-8-(1-methyl-1H-indazol-5-yl)-7-(pyridin-4-yl)-3,6-dihydroimidazo[4,5-d]pyrrolo[2,3-b]pyridin-2(1H)-one], the IC50 in assay [1] is above 1000 nM; in assay [2] it was at most 10 nM; in assay [3], at most 10 nM.

Turning to `Cn1ncc2cc(-c3c(-c4cccnc4)[nH]c4ncc5c(c34)n(C3CCCC3)c(=O)n5C)ccc21` [Example 61, 1-Cyclopentyl-3-methyl-8-(1-methyl-1H-indazol-5-yl)-7-(pyridin-3-yl)-3,6-dihydroimidazo[4,5-d]pyrrolo[2,3-b]pyridin-2(1H)-one], the IC50 in assay [1] was above 1000 nM; in assay [2] it was at most 10 nM; in assay [3], at most 10 nM.

For `COc1ccc(-c2[nH]c3ncc4c(c3c2-c2ccc3c(cnn3C)c2)n(C(C)C)c(=O)n4C)cn1` [Example 62, 1-Isopropyl-7-(6-methoxypyridin-3-yl)-3-methyl-8-(1-methyl-1H-indazol-5-yl)-3,6-dihydroimidazo[4,5-d]pyrrolo[2,3-b]pyridin-2(1H)-one], the IC50 in assay [1] is above 1000 nM; in assay [2], 10 to 100 nM; in assay [3], 10 to 100 nM.

Turning to `COc1ccc(-c2[nH]c3ncc4c(c3c2-c2ccc3c(cnn3C)c2)n(C2CCOCC2)c(=O)n4C)cn1` [Example 63, 7-(6-Methoxypyridin-3-yl)-3-methyl-8-(1-methyl-1H-indazol-5-yl)-1-(tetrahydro-2H-pyran-4-yl)-3,6-dihydroimidazo[4,5-d]pyrrolo[2,3-b]pyridin-2(1H)-one], the results for the IC50 in assay [1], in assay [2] and in assay [3] were above 1000 nM, at most 10 nM and at most 10 nM, respectively.

Take `COc1ccc(-c2[nH]c3ncc4c(c3c2-c2ccc3c(cnn3C)c2)n(C2CCCC2)c(=O)n4C)cn1` [Example 64, 1-Cyclopentyl-7-(6-methoxypyridin-3-yl)-3-methyl-8-(1-methyl-1H-indazol-5-yl)-3,6-dihydroimidazo[4,5-d]pyrrolo[2,3-b]pyridin-2(1H)-one]: the IC50 in assay [1] was above 1000 nM; in assay [2], at most 10 nM; in assay [3] it was 10 to 100 nM.

As to `CC(C)Oc1ccc(-c2[nH]c3ncc4c(c3c2-c2ccc3c(cnn3C)c2)n(C2CCCC2)c(=O)n4C)cn1` [Example 65, 1-Cyclopentyl-7-(6-isopropoxypyridin-3-yl)-3-methyl-8-(1-methyl-1H-indazol-5-yl)-3,6-dihydroimidazo[4,5-d]pyrrolo[2,3-b]pyridin-2(1H)-one], the IC50 was above 1000 nM in assay [1], 10 to 100 nM in assay [2] and 10 to 100 nM in assay [3].

As for `Cn1ncc2cc(-c3c(-c4ccc(OC5CCOCC5)nc4)[nH]c4ncc5c(c34)n(C3CCCC3)c(=O)n5C)ccc21` [Example 66, 1-Cyclopentyl-3-methyl-8-(1-methyl-1H-indazol-5-yl)-7-(6-((tetrahydro-2H-pyran-4-yl)oxy)pyridin-3-yl)-3,6-dihydroimidazo[4,5-d]pyrrolo[2,3-b]pyridin-2(1H)-one], the figures for the IC50 in assay [1], in assay [2] and in assay [3] were above 1000 nM, 10 to 100 nM and 10 to 100 nM, respectively.

Turning to `Cn1ncc2cc(-c3c(-c4ccc(Oc5cccnc5)nc4)[nH]c4ncc5c(c34)n(C3CCCC3)c(=O)n5C)ccc21` [Example 67, 1-Cyclopentyl-3-methyl-8-(1-methyl-1H-indazol-5-yl)-7-(6-(pyridin-3-yloxy)pyridin-3-yl)-3,6-dihydroimidazo[4,5-d]pyrrolo[2,3-b]pyridin-2(1H)-one], the IC50 in assay [1] is above 1000 nM; in assay [2], 10 to 100 nM; in assay [3], 10 to 100 nM.

Consider `Cn1ncc2cc(-c3c(C4CC4)[nH]c4ncc5c(c34)n(C3CCCC3)c(=O)n5C)ccc21` [Example 68, 1-Cyclopentyl-7-cyclopropyl-3-methyl-8-(1-methyl-1H-indazol-5-yl)-3,6-dihydroimidazo[4,5-d]pyrrolo[2,3-b]pyridin-2(1H)-one], for which the IC50 in assay [1] was 500 to 1000 nM; in assay [2], at most 10 nM; in assay [3] it was at most 10 nM.

As for `Cn1ncc2cc(-c3c(C4=CCCCC4)[nH]c4ncc5c(c34)n(C3CCCC3)c(=O)n5C)ccc21` [Example 69, 7-(Cyclohex-1-en-1-yl)-1-cyclopentyl-3-methyl-8-(1-methyl-1H-indazol-5-yl)-3,6-dihydroimidazo[4,5-d]pyrrolo[2,3-b]pyridin-2(1H)-one], the IC50 in assay [1] is above 1000 nM; in assay [2], at most 10 nM; in assay [3], at most 10 nM.

Take `Cn1ncc2cc(-c3c(CCO)[nH]c4ncc5c(c34)n(C3CCCC3)c(=O)n5C)ccc21` [Example 70, 1-Cyclopentyl-7-(2-hydroxyethyl)-3-methyl-8-(1-methyl-1H-indazol-5-yl)-3,6-dihydroimidazo[4,5-d]pyrrolo[2,3-b]pyridin-2(1H)-one]: the IC50 is above 1000 nM in assay [1], 100 to 500 nM in assay [2] and 100 to 500 nM in assay [3].

With `Cn1c(=O)n(C2CCCC2)c2c3c(-c4cc5cnccc5s4)c(C4CC4)[nH]c3ncc21` [Example 71, 1-Cyclopentyl-7-cyclopropyl-3-methyl-8-(thieno[3,2-c]pyridin-2-yl)-3,6-dihydroimidazo[4,5-d]pyrrolo[2,3-b]pyridin-2(1H)-one], the IC50 was 500 to 1000 nM in assay [1], at most 10 nM in assay [2] and 10 to 100 nM in assay [3].

For the compound `Cn1ncc2cc(-c3c(C4CC4C#N)[nH]c4ncc5c(c34)n(C3CCCC3)c(=O)n5C)ccc21` (stereo not drawn) [Example 72, 2-(1-Cyclopentyl-3-methyl-8-(1-methyl-1H-indazol-5-yl)-2-oxo-1,2,3,6-tetrahydroimidazo [4,5-d]pyrrolo[2,3-b]pyridin-7-yl)cyclopropane-1-carbonitrile], the IC50 in assay [1] was 500 to 1000 nM; in assay [2] it was at most 10 nM; in assay [3], 10 to 100 nM.

Regarding `COCC(=O)NC1CCC(n2c(=O)n(C)c3cnc4[nH]c(-c5cnn(CC(C)(C)O)c5)c(-c5ccc6c(cnn6C)c5)c4c32)CC1` (stereo not drawn) [Example 73, N-(4-(7-(1-(2-Hydroxy-2-methylpropyl)-1H-pyrazol-4-yl)-3-methyl-8-(1-methyl-1H-indazol-5-yl)-2-oxo-3,6-dihydroimidazo[4,5-d]pyrrolo[2,3-b]pyridin-1(2H)-yl)cyclohexyl)-2-methoxyacetamide], the results for the IC50 in assay [1], in assay [2] and in assay [3] were above 1000 nM, at most 10 nM and at most 10 nM, respectively.

Take `CC(=O)NC1CCC(n2c(=O)n(C)c3cnc4[nH]c(-c5cnn(CC(C)(C)O)c5)c(-c5ccc6c(cnn6C)c5)c4c32)CC1` (stereo not drawn) [Example 74, N-(4-(7-(1-(2-Hydroxy-2-methylpropyl)-1H-pyrazol-4-yl)-3-methyl-8-(1-methyl-1H-indazol-5-yl)-2-oxo-3,6-dihydroimidazo[4,5-d]pyrrolo[2,3-b]pyridin-1(2H)-yl)cyclohexyl) acetamide]: the IC50 in assay [1] is 500 to 1000 nM; in assay [2], at most 10 nM; in assay [3], at most 10 nM.

For `CC(C)n1c(=O)n(C)c2cnc3[nH]c(-c4cnn(CC(C)(C)O)c4)c(-c4cc5cnccc5s4)c3c21` [Example 75, 7-(1-(2-Hydroxy-2-methylpropyl)-1H-pyrazol-4-yl)-1-isopropyl-3-methyl-8-(thieno[3,2-c]pyridin-2-yl)-3,6-dihydroimidazo[4,5-d]pyrrolo[2,3-b]pyridin-2(1H)-one], the IC50 in assay [1] was 500 to 1000 nM; in assay [2] it was at most 10 nM; in assay [3] it was at most 10 nM.

For the origin of these results see patent US11780840B2 (Incyte Corporation, priority 2020, dated 2023).
